Test system: human breast cancer BT474 cells
Method: Test sample diluent: a proper amount of PEG300 and absolute alcohol was taken, and sodium chloride injection was added to make that the content of PEG300 and absolute alcohol was 20% (v/v).
Test samples: 41-32, 41-40 and 39-55 were respectively taken in a proper volume, and a proper amount of each of the test sample diluent was added, to respectively prepare solutions with the concentrations of 8.3 mg/mL, 4.6 mg/mL and 5.5 mg/mL.
An estrogen sustained-release tablet (17 beta-ESTRADIOL, product No.: SE-121, Innovative Research of America) was embedded under the skin at the neck back of NPG mice before cell inoculation. A BT474 cell suspension with the concentration of 7.5×10^7/mL and a Matrigel Basement membrane Matrix (BD Co.) were mixed according to the volume ratio of 1:1 to obtain a cell suspension with the concentration of 3.75×10^7/mL. 0.2 mL of the cell suspension was inoculated into the right mammary fat pad of the mice. The tumor growth was observed after inoculation, and 36 tumorigenic animals with the tumor volume of 66.83-324.35 mm^3 were finally screened and used for the test.
The negative control, SB7, 41-32, 41-40 and 39-55 were intravenously injected; LPT was intragastrically administered.

[1] = end of experiment (D29), doses as in E38

CS(=O)(=O)CCNCc1ccc(-c2ccc3ncnc(Nc4ccc(OCc5cccc(F)c5)c(Cl)c4)c3c2)o1 [LPT, Lapatinib]
animals died during the experiment (6 animals per group, LPT 20 mg/kg i.g. (D19), SB7+LPT 5+5.6 mg/kg (D15, D25)): 1
average tumor weight (after euthanasia (D29), doses as in E38): 1.226 ± 0.370 g
inhibition effect on tumor growth (conclusion) (doses as in E38): certain inhibition effects
average tumor volume (end of experiment (D29), LPT 20 mg/kg i.g. and 41-32 83 mg/kg i.v. every 3 days, SB7+LPT 5+5.6 mg/kg, 41-40 46 mg/kg i.v., 39-55 55 mg/kg i.v. one time/week, 4 weeks): 1313.80±241.46 mm^3
average RTV (relative tumor volume) [1]: 8.13±2.92
relative tumor proliferation rate T/C % [1]: 54.27%
tumor weight inhibition rate IRTW % (from tumor weights after euthanasia (D29), b1725, doses as in E38): 32.15%

Source: US11793881B2, “Polyethylene glycol conjugate medicament, preparation method therefor and use thereof” (CHONGQING UPGRA BIOTECHNOLOGY CO., LTD., priority 2019, dated 2023)
